Experimental data reported in ChEMBL document CHEMBL1201862, “PubChem BioAssay data set” (2004).
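The compound was tested at five concentrations on cells cultured in 96-well plates, with a 48-hour exposure period. GI50 is the concentration that inhibits growth by half.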 Active and inactive are the calls of the source. No stated cut-off is given here; in the data, active = GI50 up to about 1.1 µM and inactive = higher.

Tests used:
Assay in all cases: NCI anticancer screen, dose series, 48 h
[1] = test system: MDA-MB-435
[2] = test system: TK-10
[3] = test system: IGROV-1
[4] = test system: HCT-15
[5] = test system: HT-29
[6] = test system: DU-145
[7] = test system: CAKI-1
[8] = test system: MDA-N
[9] = test system: SR
[10] = test system: SW-620
[11] = test system: SK-MEL-5
[12] = test system: UACC-257
[13] = test system: HCC 2998
[14] = test system: NCI-H23
[15] = test system: MCF7
[16] = test system: SNB-19
[17] = test system: 786-0
[18] = test system: K562
[19] = test system: A549
[20] = test system: UACC-62
[21] = test system: PC-3
[22] = test system: SF-268
[23] = test system: EKVX
[24] = test system: M14
[25] = test system: NCI-H522
[26] = test system: Hs-578T
[27] = test system: OVCAR-4
[28] = test system: SF-539
[29] = test system: Malme-3M
[30] = test system: HOP-62
[31] = test system: CCRF-CEM
[32] = test system: UO-31
[33] = test system: SK-MEL-2
[34] = test system: OVCAR-3
[35] = test system: ACHN
[36] = test system: BT-549
[37] = test system: COLO 205
[38] = test system: RXF 393
[39] = test system: A498
[40] = test system: NCI-H460
[41] = test system: KM12
[42] = test system: NCI/ADR-RES
[43] = test system: SNB-75
[44] = test system: HL-60
[45] = test system: NCI-H226
[46] = test system: OVCAR-8
[47] = test system: OVCAR-5
[48] = test system: LOX IMVI
[49] = test system: SN12C
[50] = test system: SK-MEL-28
[51] = test system: U-251
[52] = test system: HOP-92
[53] = test system: T47D
[54] = test system: SF-295
[55] = test system: HCT-116
[56] = test system: SK-OV-3
[57] = test system: MOLT-4
[58] = test system: RPMI-8226
[59] = test system: MDA-MB-231

**Q.** Which GI50 [1] does the source give for `COC(=O)c1c(C)[nH]c2c1C(=O)C(=O)c1nc(C)c(C)nc1-2` here?
**A.** 10.7 µM (inactive)

**Q.** And the GI50 [2]?
**A.** 3.6 µM (inactive)

**Q.** What about the GI50 [3] of the same compound?
**A.** 3.41 µM (inactive)

**Q.** And the GI50 [4]?
**A.** 9.98 µM

**Q.** And the GI50 [5]?
**A.** 14 µM (inactive)

**Q.** And the GI50 [6]?
**A.** 6.04 µM (inactive)

**Q.** What about the GI50 [7] of the same compound?
**A.** 6.75 µM (inactive)

**Q.** And the GI50 [8]?
**A.** 5.37 µM (inactive)

**Q.** What about the GI50 [9] of the same compound?
**A.** 5.33 µM (inactive)

**Q.** And the GI50 [10]?
**A.** 10.8 µM (inactive)

**Q.** And the GI50 [11]?
**A.** 5.77 µM (inactive)

**Q.** And the GI50 [12]?
**A.** 11 µM (inactive)

**Q.** What about the GI50 [13] of the same compound?
**A.** 8.85 µM (inactive)

**Q.** And the GI50 [14]?
**A.** 10.2 µM (inactive)

**Q.** What about the GI50 [15] of the same compound?
**A.** 7.48 µM (inactive)

**Q.** And the GI50 [16]?
**A.** 4.76 µM (inactive)

**Q.** And the GI50 [17]?
**A.** 10.4 µM (inactive)

**Q.** What about the GI50 [18] of the same compound?
**A.** 9.38 µM (inactive)

**Q.** And the GI50 [19]?
**A.** 7.52 µM (inactive)

**Q.** And the GI50 [20]?
**A.** 4.41 µM (inactive)

**Q.** What about the GI50 [21] of the same compound?
**A.** 7.53 µM (inactive)

**Q.** What about the GI50 [22] of the same compound?
**A.** 9.53 µM (inactive)

**Q.** What about the GI50 [23] of the same compound?
**A.** 8.69 µM (inactive)

**Q.** And the GI50 [24]?
**A.** 10.7 µM (inactive)

**Q.** What about the GI50 [25] of the same compound?
**A.** 3.48 µM (inactive)

**Q.** And the GI50 [26]?
**A.** 5.85 µM (inactive)

**Q.** What about the GI50 [27] of the same compound?
**A.** 12.9 µM (inactive)

**Q.** And the GI50 [28]?
**A.** 10.4 µM (inactive)

**Q.** And the GI50 [29]?
**A.** 3.58 µM (inactive)

**Q.** And the GI50 [30]?
**A.** 5.98 µM (inactive)

**Q.** What about the GI50 [31] of the same compound?
**A.** 5.04 µM (inactive)

**Q.** What about the GI50 [32] of the same compound?
**A.** 10.1 µM (inactive)

**Q.** And the GI50 [33]?
**A.** 3.86 µM (inactive)

**Q.** And the GI50 [34]?
**A.** 9.79 µM (inactive)

**Q.** What about the GI50 [35] of the same compound?
**A.** 2.85 µM (inactive)

**Q.** What about the GI50 [36] of the same compound?
**A.** 10.9 µM (inactive)

**Q.** And the GI50 [37]?
**A.** 8.63 µM (inactive)

**Q.** What about the GI50 [38] of the same compound?
**A.** 1.98 µM (inactive)

**Q.** What about the GI50 [39] of the same compound?
**A.** 2.92 µM (inactive)

**Q.** What about the GI50 [40] of the same compound?
**A.** 5.27 µM (inactive)

**Q.** And the GI50 [41]?
**A.** 10.8 µM (inactive)

**Q.** What about the GI50 [42] of the same compound?
**A.** 12.7 µM (inactive)

**Q.** And the GI50 [43]?
**A.** 1.21 µM (inactive)

**Q.** And the GI50 [44]?
**A.** 9.23 µM (inactive)

**Q.** And the GI50 [45]?
**A.** 11.8 µM (inactive)

**Q.** What about the GI50 [46] of the same compound?
**A.** 10.2 µM (inactive)

**Q.** What about the GI50 [47] of the same compound?
**A.** 11.7 µM (inactive)

**Q.** What about the GI50 [48] of the same compound?
**A.** 5.79 µM (inactive)

**Q.** What about the GI50 [49] of the same compound?
**A.** 2.84 µM (inactive)

**Q.** What about the GI50 [50] of the same compound?
**A.** 11.1 µM (inactive)

**Q.** And the GI50 [51]?
**A.** 4.84 µM (inactive)

**Q.** And the GI50 [52]?
**A.** 5.79 µM (inactive)

**Q.** What about the GI50 [53] of the same compound?
**A.** 0.162 µM (active)

**Q.** And the GI50 [54]?
**A.** 4.54 µM (inactive)

**Q.** What about the GI50 [55] of the same compound?
**A.** 4.28 µM (inactive)

**Q.** What about the GI50 [56] of the same compound?
**A.** 3.5 µM (inactive)

**Q.** And the GI50 [57]?
**A.** 7.66 µM (inactive)

**Q.** And the GI50 [58]?
**A.** 10.2 µM (inactive)

**Q.** Which GI50 [1] does the source give for `Cc1[nH]c2ncn(/N=C/c3ccccc3O)c(=N)c2c1Cc1ccccc1` here?
**A.** 18.5 µM (inactive)

**Q.** And the GI50 [2]?
**A.** 56.9 µM (inactive)

**Q.** What about the GI50 [3] of the same compound?
**A.** > 100 µM (inactive)

**Q.** What about the GI50 [4] of the same compound?
**A.** 46.3 µM

**Q.** And the GI50 [5]?
**A.** 47.6 µM (inactive)

**Q.** What about the GI50 [6] of the same compound?
**A.** > 100 µM (inactive)

**Q.** And the GI50 [7]?
**A.** 46.1 µM (inactive)

**Q.** And the GI50 [8]?
**A.** 26 µM (inactive)

**Q.** And the GI50 [10]?
**A.** 32.2 µM (inactive)

**Q.** And the GI50 [12]?
**A.** 34.4 µM (inactive)

**Q.** What about the GI50 [13] of the same compound?
**A.** 28.9 µM (inactive)

**Q.** What about the GI50 [14] of the same compound?
**A.** 50.6 µM (inactive)

**Q.** What about the GI50 [15] of the same compound?
**A.** 33 µM (inactive)

**Q.** What about the GI50 [16] of the same compound?
**A.** > 100 µM (inactive)

**Q.** And the GI50 [17]?
**A.** 81.8 µM (inactive)

**Q.** And the GI50 [18]?
**A.** 11.3 µM (inactive)

**Q.** And the GI50 [19]?
**A.** 39.4 µM (inactive)

**Q.** And the GI50 [20]?
**A.** 37.2 µM (inactive)

**Q.** What about the GI50 [21] of the same compound?
**A.** 17.6 µM (inactive)

**Q.** And the GI50 [22]?
**A.** 75.2 µM (inactive)

**Q.** And the GI50 [23]?
**A.** 25 µM (inactive)

**Q.** And the GI50 [24]?
**A.** 58.6 µM (inactive)

**Q.** What about the GI50 [26] of the same compound?
**A.** 96.2 µM (inactive)

**Q.** And the GI50 [27]?
**A.** 63.5 µM (inactive)

**Q.** What about the GI50 [28] of the same compound?
**A.** 30 µM (inactive)

**Q.** And the GI50 [30]?
**A.** > 100 µM (inactive)

**Q.** What about the GI50 [31] of the same compound?
**A.** 39.4 µM (inactive)

**Q.** And the GI50 [32]?
**A.** 43.1 µM (inactive)

**Q.** What about the GI50 [33] of the same compound?
**A.** 23.3 µM (inactive)

**Q.** What about the GI50 [34] of the same compound?
**A.** 24.2 µM (inactive)

**Q.** And the GI50 [35]?
**A.** 54.2 µM (inactive)

**Q.** What about the GI50 [36] of the same compound?
**A.** 37.2 µM (inactive)

**Q.** And the GI50 [37]?
**A.** > 100 µM (inactive)

**Q.** What about the GI50 [38] of the same compound?
**A.** > 100 µM (inactive)

**Q.** What about the GI50 [39] of the same compound?
**A.** 36.5 µM (inactive)

**Q.** And the GI50 [40]?
**A.** 66.7 µM (inactive)

**Q.** And the GI50 [41]?
**A.** 30.2 µM (inactive)

**Q.** And the GI50 [42]?
**A.** 40.6 µM (inactive)

**Q.** What about the GI50 [43] of the same compound?
**A.** 91 µM (inactive)

**Q.** What about the GI50 [44] of the same compound?
**A.** 23.6 µM (inactive)

**Q.** What about the GI50 [45] of the same compound?
**A.** 75.5 µM (inactive)

**Q.** And the GI50 [59]?
**A.** 24.9 µM (inactive)

**Q.** And the GI50 [46]?
**A.** > 100 µM (inactive)

**Q.** What about the GI50 [47] of the same compound?
**A.** > 100 µM (inactive)

**Q.** What about the GI50 [48] of the same compound?
**A.** 59.2 µM (inactive)

**Q.** What about the GI50 [49] of the same compound?
**A.** 67 µM (inactive)

**Q.** And the GI50 [50]?
**A.** 42.3 µM (inactive)

**Q.** And the GI50 [51]?
**A.** 19.6 µM (inactive)

**Q.** And the GI50 [52]?
**A.** > 100 µM (inactive)

**Q.** And the GI50 [53]?
**A.** > 100 µM (inactive)

**Q.** What about the GI50 [54] of the same compound?
**A.** 58.6 µM (inactive)

**Q.** And the GI50 [55]?
**A.** 43.4 µM (inactive)

**Q.** What about the GI50 [56] of the same compound?
**A.** > 100 µM (inactive)

**Q.** And the GI50 [57]?
**A.** 30.8 µM (inactive)

**Q.** What about the GI50 [58] of the same compound?
**A.** 37.8 µM (inactive)
